Legend:
A549-xenografted tumors = assay: A549 xenograft nude mouse model; conditions: cisplatin 5 mg/kg intravenous
Protocol: The body weights of mice and their tumor sizes were measured twice a week. Cisplatin was used as internal control.
The four-week-old female Balb/c nu/nu mice were bought from Orient Bio (Sungnam, Republic of Korea) and maintained for two weeks at 25 ± 2 °C in 50 ± 5% relative humidity with 12 h dark/light cycles. Then, 5 × 10^6 A546 human lung cancer cells mixed with Matrigel were injected subcutaneously into the right dorsal area. […] The body weights and tumor sizes of the mice were measured twice a week for five weeks. […] The tumor volume in each mouse was determined using the following formula: tumor volume (mm^3) = length × width^2 × 0.5.

Caco-2 cells = assay: MTT cell viability assay; conditions: Caco-2, 24 h treatment, absorbance 530 nm
Protocol: (§1) Then, the cells were further incubated for 4 h in the dark after adding MTT reagent. After incubation, formed formazan crystal was dissolved. The absorbance of the solubilized formazan was measured at 530 nm to determine cell viability of each AMP.
(§2) A549 human lung cancer cells, MDA-MB-231 triple-negative human breast cancer cells, HT-29 human colorectal adenocarcinoma, Panc-1 human pancreatic cancer cell line, and Caco2 human epithelial cell line were purchased from the Korean Cell Line Bank (Seoul, Republic of Korea). HaCaT human keratinocytes were gifted by Professor Su-Kyung Kim (Department of Pharmacology, Keimyung University School of Medicine). The cells were routinely grown in Dulbecco’s Modified Eagle Medium supplemented with 10% fetal bovine serum and 1% antimycotic/antibiotic solution at 37 °C in an atmosphere containing 5% CO2.
(§3) 1 × 10^4 cells were seeded into each well in a 96-well plate and attached for 24 h at 37 °C. […] The medium was removed, and the cells were incubated for 4 h in the dark after adding 50 μL of MTT reagent (Sigma-Aldrich; Merck KGaA, Darmstadt, Germany) in an each well.

HaCaT cells = assay: MTT cell viability assay; conditions: 24 h treatment, absorbance 530 nm
Protocol: as §1, §2, §3

cancer and normal cells = assay: AV/PI flow cytometric analysis, positive control; type: cell-based, human; conditions: 24 h, AV/PI staining
Protocol: 5 × 10^5/well cells were plated into 6-well plates and incubated at 37 °C with 5% CO2 for 24 h to allow adhesion. […] The conditioned medium was collected into a 15 mL conical tube to retrieve the floating cells, while adherent cells were detached using trypsin. The floating cells in the collected medium were combined with the detached adherent cells and centrifuged for 2 min at 3000 rpm at 4 °C to collect the cells. The cell pellet was resuspended using 1x binding buffer containing AV and PI and incubated for 30 min at 37 °C. The cells were analyzed using a CytoFLEX Flow Cytometer (Beckman Coulter, Brea, CA, USA).

[1] = test system: human red blood cells (RBCs); assay: Hemolysis assay; type: cell-based; conditions: human RBCs in PBS, 37 °C, 1 h, absorbance 405 nm, relative to 1% Triton X-100
Protocol: This study was approved by the Institutional Review Board of Dongguk University (No.: DGU IRB 20200007-01). RBCs were prepared from human blood obtained from the Korean Red Cross by centrifugation at 2000 rpm for 30 min at 10 °C, followed by pellet collection. RBC pellets were washed by resuspending in phosphate-buffered saline (PBS) and centrifugation at 2000 rpm for 30 min at 10 °C thrice. Subsequently, RBCs were resuspended in PBS and 50 μL/well of RBC solution was loaded into a 96-well plate. […] Finally, the absorbance of the supernatant was measured at 405 nm using an Epoch ELISA Reader. […] All the absorbance values were normalized to those of PBS.

## N.N.[Cl][Pt][Cl] [cisplatin]
A549-xenografted tumors
  body weight: significant body weight loss
A549-xenografted tumors; twice in the first week, start at about 400 mm^3
  tumor growth: effectively suppressed

## CC[C@H](C)[C@H](NC(=O)CN)C(=O)NCC(=O)N[C@@H](C)C(=O)N[C@H](C(=O)N[C@@H](CC(C)C)C(=O)N[C@@H](CCCCN)C(=O)N[C@H](C(=O)N[C@@H](CC(C)C)C(=O)N[C@H](C(=O)N[C@H](C(=O)NCC(=O)N[C@@H](CC(C)C)C(=O)N1CCC[C@H]1C(=O)N[C@@H](C)C(=O)N[C@@H](CC(C)C)C(=O)N[C@H](C(=O)N[C@@H](CO)C(=O)N[C@@H](Cc1c[nH]c2ccccc12)C(=O)N[C@H](C(=O)N[C@@H](CCCCN)C(=O)N[C@@H](CCCNC(=N)N)C(=O)N[C@@H](CCCCN)C(=O)N[C@@H](CCCNC(=N)N)C(=O)N[C@@H](CCC(N)=O)C(=O)N[C@@H](CCC(N)=O)C(N)=O)[C@@H](C)CC)[C@@H](C)CC)[C@@H](C)O)[C@@H](C)O)C(C)C)C(C)C [melittin]
Caco-2 cells
  concentration showing cytotoxicity: ≥ 8000 ng/mL
HaCaT cells
  concentration showing cytotoxicity: ≥ 8000 ng/mL
Cancer and normal cells
  cytotoxicity in cancer and normal cells: high cytotoxicity
[1]
  concentration showing hemolytic activity: exceeding 8 μg/mL

— publication PMC12429151 (International Journal of Molecular Sciences, 2025)
